Measured values taken from ChEMBL document CHEMBL1158996, “Antiviral phloroglucinols from New Zealand Kunzea species” (1992).

How the values were obtained:
Human alphaherpesvirus 1 = experiment: Antiviral activity against Herpes simplex virus type 1 assessed as inhibition of virus-induced cytopathic effect at 5 ug/disk; format: functional; details: read-out: IZ
Poliovirus 1 = experiment: Antiviral activity against Poliovirus type 1 assessed as inhibition of virus-induced cytopathic effect at 5 ug/disk; format: functional; details: Enterovirus C; read-out: IZ

Structure (SMILES) | zone of inhibition at 5 µg/disc (Human alphaherpesvirus 1) | zone of inhibition at 5 µg/disc (Poliovirus 1)
COc1cc(O)c(C(=O)C(C)C)c(O)c1 | 17 mm | 17 mm
COc1cc(O)cc(O)c1C(=O)C(C)C [ROBUSTAOL B] | 17 mm | 17 mm
